Tests used:
[1] = comparison of embedding media; cited from earlier work
[2] = Vapor pressures of embedding media (FIG. 1, from the literature)
Text: The vapor pressures of various embedding media are known from the literature.

| Compound | vapor pressure (in words) [1] | vapor pressure, times lower than that of ethyl cinnamate ([2]; at 25° C.) | volatility, times less volatile than DBE ([2]; expanded section in FIG. 1) |
| --- | --- | --- | --- |
| O=C(Cc1ccccc1)OCc1ccccc1 [benzyl phenylacetate, benzyl 2-phenylacetate] | lowest vapor pressure | approximately 275 times | about 4 times |
| CCOC(=O)C=Cc1ccccc1 [ethyl cinnamate, reference compound] | comparatively high vapor pressure |  |  |
